Test results taken from patent publication US4883661A, “Use of arginine as an lymphokine synergist” (priority 1987, dated 1989).

What was measured:
allolymphoblasts = assay: Cytotoxic T lymphocyte (CTL) development, 4 hour chromium release, mice on dietary supplement; assay type: in vivo, CBA/J mice; settings: for CTL cytotoxicity (% toxicity): 1% dietary supplementation at least 10 days, 4 hour chromium release assay, * p,0.05 Student's t test (ARG)
Protocol: (§1) The effect of arginine on IL-2 dependent responses is shown by the following example. The effect of arginine on two IL-2 - dependent responses (T cell activation and cytotoxic T lymphocyte (CTL) development)and on interferon-influenced natural killer (NK) cell activity was evaluated.
(§2) CBA/J mice (n=100) received 1% arginine (ARG) dietary supplementation o isonitrogenous glycine (GLY) for al least 10 days. CTL development was determined by sensitizing mice to BALB/C spleen cell alloantigen in vivo (×3 immunizations) and measuring cytotoxicity against allolymphoblasts as targets. Basal and Poly I:C - induced NK activity was measured against YAC targets. Using indirect immunofluorescence, IL-2 receptor expression (M7/20) on purified splenic T cells was determined 24 and 48 hours after con A activation. Results are presented in Table 1 wherein data are expressed as % toxicity in a 4 hour Chromium release assay (CTL and NK cells only) and % expression (IL-2). (*p,0.05 Student's T test)

YAC targets = assay: Basal and Poly I:C-induced natural killer (NK) activity, 4 hour chromium release, mice on dietary supplement; assay type: in vivo, CBA/J mice; settings: for NK(Induced) activity (% toxicity): Poly I:C-induced, * p,0.05 (ARG); for NK(Induced) activity (% toxicity) / NK(basal) activity (% toxicity): 1% dietary supplementation at least 10 days, YAC targets, 4 hour chromium release
Protocol: as §1, §2

IL-2 receptor = IL-2 receptor expression (M7/20) on purified splenic T cells after con A activation, indirect immunofluorescence; assay type: in vivo, CBA/J mice; settings: for IL 2 (24 hr) receptor expression (% expression): 24 hours after con A activation; for IL 2 (24 hr) receptor expression (% expression) / IL 2 (48 hr) receptor expression (% expression): * p,0.05 (ARG); for IL 2 (48 hr) receptor expression (% expression): 48 hours after con A activation
Protocol: as §1, §2

C1300 neuroblastoma [1] = assay: Mixed lymphocyte tumor cell culture (MLTC), C1300 tumor bearing protein malnourished mice; assay type: in vivo, A/J mice; settings: for MLTC Stimulation Index (d21): day 21
Protocol: (§3) The effects of supplemental arginine (ARG) in the malnourished tumor bearing host were evaluated. […] Body weight, tumor weight and carcass weight were measured weekly and duration of survival was recorded. On day 10, specific T cell cytotoxicity was measured; concanavalin A (con A) stimulation of thymocytes and mixed lymphocyte tumor cell culture (MLTC) were measured on days 14 (d14) and 21(d21) (n=5/group).

C1300 neuroblastoma [2] = assay: Tumor growth and survival, C1300 neuroblastoma in protein malnourished mice; assay type: in vivo, A/J mice; settings: for median survival: ARG p<0.001 compared with GLY and LPD (LPD, 29 days)
Protocol: as §3

[3] = Body weight and carcass weight, C1300 tumor bearing protein malnourished mice; assay type: in vivo, A/J mice; settings: for total body weight and mean carcass weight: compared with LPD mice
Protocol: as §3

C3HBA tumors = settings: supplemented after tumor excision, cited from earlier work
[4] = system: breast adenocarcinoma (C3HBA); settings: rats; cited from earlier work
lymphocytes = settings: in vitro incubation in media with higher amounts of arginine; cited from earlier work
thymus = settings: cited from earlier work
[5] = dietary supplement before and/or after wounding, rats; cited from earlier work
[6] = given prior to or concomitantly with amino acids, glycine or ammonia; rats; cited from earlier work
[7] = humans, mainly liver disease; cited from earlier work
[8] = dietary arginine, young growing rat; cited from earlier work
thymocytes = assay: Concanavalin A stimulation of thymocytes, C1300 tumor bearing protein malnourished mice; assay type: in vivo, A/J mice; settings: mean ± SD, * p<0.001, low protein diet + 1% supplement
Protocol: as §3

C1300 neuroblastoma [9] = settings: mouse, in vivo
Protocol: Body weight, tumor weight and carcass weight were measured weekly and duration of survival was recorded. On day 10, specific T cell cytotoxicity was measured; concanavalin A (con A) stimulation of thymocytes and mixed lymphocyte tumor cell culture (MLTC) were measured on days 14 (d14) and 21(d21) (n=5/group).

[10] = intraperitoneal, after 24 hour starvation, rats; cited from earlier work
[11] = 30 g daily in divided doses for 1 week, human; cited from earlier work
[12] = system: peripheral blood lymphocyte; settings: daily oral supplements (30 g), cited from earlier work
[13] = 1% in drinking water 6 days after the injury; cited from earlier work
[14] = mean ± SD, low protein diet + 1% supplement

SMILES: N=C(N)NCCC[C@H](N)C(=O)O [ARG, arginine]
- CTL cytotoxicity (% toxicity) (allolymphoblasts): 69 ± 15%
- CTL activity, in words (allolymphoblasts; supplemental arginine): significantly augmented
- NK(Induced) activity (% toxicity) (YAC targets): 43 ± 12%
- NK(basal) activity (% toxicity) (YAC targets): 19 ± 5%
- inducible NK activity, in words (YAC targets; supplemental arginine): significantly augmented
- IL 2 (24 hr) receptor expression (% expression) (IL-2 receptor): 52 ± 4%
- IL 2 (48 hr) receptor expression (% expression) (IL-2 receptor): 59 ± 6%
- IL-2 receptor kinetics, in words (IL-2 receptor; supplemental arginine): enhanced
- MLTC Stimulation Index (d21) (C1300 neuroblastoma [1]; [14]): 2.2 ± 1.3
- immune responses in tumor bearing protein malnourished mice (C1300 neuroblastoma [1]; supplemental ARG): augmented immune responses
- median survival (C1300 neuroblastoma [2]): 38 days
- median survival, in words (C1300 neuroblastoma [2]; p<0.001 compared with GLY and LPD mice): prolonged
- tumor growth (C1300 neuroblastoma [2]; p<0.05, compared with GLY and LPD mice): retarded tumor growth
- total body weight and mean carcass weight [3]: significantly preserved
- host nutritional status ([3]; supplemental ARG): preserved
- survival time of mice which subsequently developed tumors (C3HBA tumors): prolonged survival time
- tumor recurrence rate (C3HBA tumors; without supplement 100% recurrence): 30%
- tumor appearance [4]: slowed tumor appearance
- tumor incidence [4]: reducing tumor incidence
- blastogenic responses in vitro (lymphocytes): does not lead to greater blastogenic responses
- lymphocyte content of the thymic glands (thymus; in vivo): significant increases
- thymic involution with injury (thymus; injured): minimizes the thymic involution
- blastogenesis of the lymphocytes in response to mitogens (thymus; thymic): significant enhancement
- thymic weight (thymus; uninjured rats and mice): increases thymic weight
- wound healing [5]: accelerated
- protection against toxic effects of hyperammonemia [6]: abrogated
- therapeutic effect, elevated blood ammonia [7]: ranged from excellent to minimal
- growth [8]: more rapid growth

SMILES: NCC(=O)O [GLY, glycine, reference compound]
- CTL cytotoxicity (% toxicity) (allolymphoblasts): 54 ± 14%
- NK(Induced) activity (% toxicity) (YAC targets): 24 ± 14%
- NK(basal) activity (% toxicity) (YAC targets): 13 ± 4%
- IL 2 (24 hr) receptor expression (% expression) (IL-2 receptor): 30 ± 4%
- IL 2 (48 hr) receptor expression (% expression) (IL-2 receptor): 46 ± 45%
- ConA Stimulation Index (d21) (thymocytes; day 21): 24.9 ± 5
- ConA Stimulation Index (thymocytes; first ConA column (d14 per text)): 38.4 ± 7
- MLTC Stimulation Index (d14) (C1300 neuroblastoma [1]; day 14, mean ± SD, * p<0.001, low protein diet + 1% supplement): 3.3 ± 0.9
- MLTC Stimulation Index (d21) (C1300 neuroblastoma [1]; [14]): 2.5 ± 0.8
- median survival (C1300 neuroblastoma [2]): 30 days
- total body weight and mean carcass weight [3]: significantly preserved
- Cytotoxicity (C1300 neuroblastoma [9]): 15 ± 1.4%

SMILES: NC(=O)NCCC[C@H](N)C(=O)O [citrulline, reference compound]
- protection against toxic effects of hyperammonemia [6]: share the "detoxifying" effects of arginine

SMILES: Cl.N=C(N)NCCC[C@H](N)C(=O)O [arginine HCl]
- LD50 [10]: 3800 mg/kg
- untoward effects [11]: no untoward effects except for mild gastrointestinal discomfort
- peripheral blood lymphocyte blastogenesis ([12]; healthy volunteers): increased
- time until blastogenesis effect is evident [12]: ≤ 3 days
- recovery [13]: 100%
- weight loss after injury [13]: reversed the weight loss
